SMILES strings stand for the structures. Activity calls are given as the source filed them. No cut-off for these calls is given here.

In ChEMBL document CHEMBL1150701, “A direct bioautographic tlc assay for compounds possessing antibacterial activity” (1987) one finds Activity and MIC data, which are given here for 19 compounds.

Test [1] deals with Bacillus subtilis. Briefly: Antibacterial activity against Bacillus subtilis ATCC 6633 at 5 ug after 48 hrs by silica gel plate-based INT-formazan method. Format: functional, organism-based.
For test [2], the system named is Escherichia coli. Briefly: Antibacterial activity against Escherichia coli ATCC 25922 at 5 ug after 48 hrs by silica gel plate-based INT-formazan method. Format: functional, organism-based.
Test [3] concerns Bacillus subtilis. Briefly: Antibacterial activity against Bacillus subtilis ATCC 6633 after 48 hrs by silica gel plate-based INT-formazan method. Format: functional.
In test [4] the test system is Escherichia coli. Briefly: Antibacterial activity against Escherichia coli ATCC 25922 after 48 hrs by silica gel plate-based INT-formazan method. The test is classed as functional.

As for `CC1=CC(=O)[C@@H](O)[C@]2(C)[C@H]3[C@@]4(O)OC[C@@]35[C@@H](C[C@@H]12)OC(=O)C[C@H]5[C@@H](C)[C@H]4O`, the outcome in the test with Bacillus subtilis [1] and in the test with Escherichia coli [2] was inactive.

On to `CC[C@@]1(O)C(=O)OCc2c1cc1n(c2=O)Cc2cc3ccccc3nc2-1`, for which the result with Bacillus subtilis [1] and with Escherichia coli [2] was inactive.

Take `CC[C@H](CC[C@@H](C)[C@H]1CC[C@H]2[C@@H]3CC=C4C[C@@H](O)CC[C@]4(C)[C@H]3CC[C@]12C)C(C)C` [BETA-SITOSTEROL]: the MIC against Bacillus subtilis [3] and against Escherichia coli [4] was more than 20 µg each time.

Take `COC(=O)[C@]12OC[C@]34[C@H]([C@@H](O)[C@@H]1O)[C@@]1(C)[C@H](O)C(=O)C=C(C)[C@@H]1C[C@H]3OC(=O)[C@H](OC(=O)CC(C)C)[C@@H]24`: the result in the test on Bacillus subtilis [1] and in the test with Escherichia coli [2] was inactive.

As to `COc1cc([C@@H]2c3cc4c(c(O)c3C[C@H]3COC(=O)[C@@H]32)OCO4)cc(OC)c1OC`, the result with Bacillus subtilis [1] and in the test on Escherichia coli [2] was inactive.

In the case of `O=C(O)/C=C/c1ccc(O)cc1` [COUMARIC ACID], the results for the MIC with Bacillus subtilis [3] and in the test on Escherichia coli [4] were 2.5 µg and 5 µg, respectively.

With `CC(=O)O[C@H]1C(=O)O[C@@H]2C[C@H]3C(C)=CC(=O)[C@@H](O)[C@]3(C)[C@H]3[C@]4(O)OC[C@]32[C@@H]1[C@@H](C)[C@H]4O`, the result in the test on Bacillus subtilis [1] and with Escherichia coli [2] was inactive.

With `CC[C@@]1(O)C(=O)OCc2c1cc1n(c2=O)Cc2cc3cc(O)ccc3nc2-1`, the result in the test on Bacillus subtilis [1] and with Escherichia coli [2] was inactive.

With `OC[C@H]1O[C@@](CO)(O[C@H]2O[C@H](CO)[C@@H](O)[C@H](O)[C@H]2O)[C@@H](O)[C@@H]1O` [SUCROSE], the MIC with Bacillus subtilis [3] and against Escherichia coli [4] was more than 20 µg each time.

Regarding `CC1(C)S[C@@H]2[C@H](NC(=O)COc3ccccc3)C(=O)N2[C@H]1C(=O)O` [PENICILLIN V], the figures for the MIC against Bacillus subtilis [3] and against Escherichia coli [4] were 0.005 µg and more than 2 µg, respectively.

Consider `O=C(N[C@H](CO)[C@H](O)c1ccc([N+](=O)[O-])cc1)C(Cl)Cl` [CHLORAMPHENICOL], for which the MIC with Bacillus subtilis [3] came out at 0.01 µg; with Escherichia coli [4], 0.02 µg.

For the compound `COc1cc([C@@H]2c3cc4c(cc3C[C@H]3COC(=O)[C@@H]32)OCO4)cc(OC)c1O`, the outcome in the test on Bacillus subtilis [1] and in the test with Escherichia coli [2] was inactive.

For `COc1cc([C@@H]2c3cc4c(c(O)c3C[C@H]3COC(=O)[C@@H]32)OCO4)cc(OC)c1O`, the result in the test on Bacillus subtilis [1] and with Escherichia coli [2] was Active.

As to `COc1cc([C@@H]2c3cc4c(cc3[C@H](O)[C@H]3COC(=O)[C@H]23)OCO4)cc(OC)c1OC`, the result in the test with Bacillus subtilis [1] and with Escherichia coli [2] was Active.

Turning to `O=c1c(O)c(-c2ccc(O)c(O)c2)oc2cc(O)cc(O)c12` [QUERCETIN], the MIC in the test with Bacillus subtilis [3] and with Escherichia coli [4] was 5 µg each time.

In the case of `CC1=CC(=O)[C@@H](O)[C@]2(C)[C@H]3[C@]4(O)OC[C@]35[C@H]([C@@H](C)[C@H]4O)[C@@H](O)C(=O)O[C@@H]5C[C@@H]12`, the outcome with Bacillus subtilis [1] and in the test with Escherichia coli [2] was inactive.

With `CC[C@H](/C=C/[C@@H](C)[C@H]1CC[C@H]2[C@@H]3CC=C4C[C@@H](O)CC[C@]4(C)[C@H]3CC[C@]12C)C(C)C` [STIGMASTEROL], the MIC with Bacillus subtilis [3] and in the test on Escherichia coli [4] was more than 20 µg each time.

Turning to `CC[C@@]1(O)C(=O)OCc2c1cc1n(c2=O)Cc2cc3c(OC)cccc3nc2-1`, the result with Bacillus subtilis [1] and in the test on Escherichia coli [2] was inactive.

As for `CCCCCCCCCCCCCCCC(=O)O` [PALMITIC ACID], the MIC with Bacillus subtilis [3] and against Escherichia coli [4] was more than 20 µg each time.
